The numbers were not newly measured in US20160279124A1, “Method for Treating Addiction” (priority 2015, published 2016), which cites them from elsewhere.

This data set relates to opioid use. To be noted: clinic and office based medical detox and Naltrexone treatment: pill, injectable and implant; for opioid use.

Turning to `O=C1CC[C@@]2(O)[C@H]3Cc4ccc(O)c5c4[C@@]2(CCN3CC2CC2)[C@H]1O5` [Naltrexone], the Success is recorded as 8% for.
